System: 188146-221-R-J1-PDC complex spheroid viability
Test: Anticancer human tumor 188146-221-R-J1-PDC patient-derived colon adenocarcinoma cell line growth inhibition [POLQ]
Conditions: for IC50: curve of first compound; for viability, T/C: stronger effect = lower value
Summary of the method: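 Patient-derived tumour cells were co-cultured with HUVEC and mesenchymal stem cells as multicellular spheroids at 37 °C. They were treated with POLQ inhibitors (novobiocin, ART-558, RP6685) alone or combined with other agents. Top concentrations were at or near clinical Cmax (otherwise 10 microM; SN-38 at 1 microM), decreasing in half-log steps.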

[1] = second compound 0.0316 µM, first compound 0.0316 µM
[2] = second compound 0.0316 µM, first compound 0.1 µM
[3] = second compound 0.0316 µM, first compound 0.316 µM
[4] = second compound 0.0316 µM, first compound 1 µM
[5] = second compound 0.0316 µM, first compound 3.16 µM
[6] = second compound 0.0316 µM, first compound 10 µM
[7] = second compound 0.1 µM, first compound 0.0316 µM
[8] = second compound 0.1 µM, first compound 0.1 µM
[9] = second compound 0.1 µM, first compound 0.316 µM
[10] = second compound 0.1 µM, first compound 1 µM
[11] = second compound 0.1 µM, first compound 3.16 µM
[12] = second compound 0.1 µM, first compound 10 µM
[13] = second compound 0.316 µM, first compound 0.0316 µM
[14] = second compound 0.316 µM, first compound 0.1 µM
[15] = second compound 0.316 µM, first compound 0.316 µM
[16] = second compound 0.316 µM, first compound 1 µM
[17] = second compound 0.316 µM, first compound 3.16 µM
[18] = second compound 0.316 µM, first compound 10 µM
[19] = second compound 1 µM, first compound 0.0316 µM
[20] = second compound 1 µM, first compound 0.1 µM
[21] = second compound 1 µM, first compound 0.316 µM
[22] = second compound 1 µM, first compound 1 µM
[23] = second compound 1 µM, first compound 3.16 µM
[24] = second compound 1 µM, first compound 10 µM
[25] = second compound 3.16 µM, first compound 0.0316 µM
[26] = second compound 3.16 µM, first compound 0.1 µM
[27] = second compound 3.16 µM, first compound 0.316 µM
[28] = second compound 3.16 µM, first compound 1 µM
[29] = second compound 3.16 µM, first compound 3.16 µM
[30] = second compound 3.16 µM, first compound 10 µM
[31] = second compound 10 µM, first compound 0.0316 µM
[32] = second compound 10 µM, first compound 0.1 µM
[33] = second compound 10 µM, first compound 0.316 µM
[34] = second compound 10 µM, first compound 1 µM
[35] = second compound 10 µM, first compound 3.16 µM
[36] = second compound 10 µM, first compound 10 µM
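Further: spheroids exposed to compounds for seven days.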
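Wherever viability, T/C is given: 100% = DMSO vehicle control viability.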

Work on `COc1cccc2c1C(=O)c1c(O)c3c(c(O)c1C2=O)CC(O)(C(=O)CO)CC3OC1CC(N)C(O)C(C)O1` (stereo unspecified) + Cc1cccc(N(C)C(=O)C2C(O)CCN2c2nc(C)cc(C(F)(F)F)c2C#N)c1 yielded an IC50 (second compound 0.0316 µM) of 0.102 µM, an IC50 (second compound 0.1 µM) of 0.146 µM and an IC50 (second compound 0.316 µM) of 0.117 µM. It also gave an IC50 (second compound 1 µM) of 0.117 µM, an IC50 (second compound 3.16 µM) of 0.0979 µM and an IC50 (second compound 10 µM) of 0.0754 µM. For the same molecule, the viability, T/C [1] was 83.8%, the viability, T/C [2] was 48% and the viability, T/C [3] was 31.3%. The viability, T/C [4] was 9.29%, the viability, T/C [5] was 0.34% and the viability, T/C [6] was 0.84%. It also gave a viability, T/C [7] of 75.1%, a viability, T/C [8] of 56.8% and a viability, T/C [9] of 34.5%. It also gave a viability, T/C [10] of 8.42%, a viability, T/C [11] of 0.28% and a viability, T/C [12] of 0.45%. The viability, T/C [13] was 81%, the viability, T/C [14] was 48.9% and the viability, T/C [15] was 36.7%. For the same molecule, the viability, T/C [16] was 10%, the viability, T/C [17] was 0.19% and the viability, T/C [18] was 0.47%. For the same molecule, the viability, T/C [19] was 74%, the viability, T/C [20] was 51% and the viability, T/C [21] was 32.6%. It also gave a viability, T/C [22] of 10.9%, a viability, T/C [23] of 0.17% and a viability, T/C [24] of 0.44%. It also gave a viability, T/C [25] of 69.8%, a viability, T/C [26] of 47.2% and a viability, T/C [27] of 29.8%. The viability, T/C [28] was 6.51%, the viability, T/C [29] was 0.32% and the viability, T/C [30] was 0.65%. It also gave a viability, T/C [31] of 74.8%, a viability, T/C [32] of 39.5% and a viability, T/C [33] of 26.4%. The viability, T/C [34] was 3.83%, the viability, T/C [35] was 0.3% and the viability, T/C [36] was 0.64%.

`CCc1cc2c(N3CCc4c(cc(Cn5ccnc5)cc4-c4cn(C)nc4C(F)(F)F)C3=O)ccnc2c(OC)n1` + COC1C(OC(N)=O)C(O)C(Oc2ccc3c(O)c(NC(=O)c4ccc(O)c(CC=C(C)C)c4)c(=O)oc3c2C)OC1(C)C gave an IC50 (second compound 0.0316 µM) of 8.38 µM, an IC50 (second compound 0.1 µM) greater than 10 µM and an IC50 (second compound 0.316 µM) of 9.83 µM. It also gave an IC50 (second compound 1 µM) of 6.45 µM, an IC50 (second compound 3.16 µM) greater than 10 µM and an IC50 (second compound 10 µM) greater than 10 µM. It also gave a viability, T/C [1] of 107%, a viability, T/C [2] of 93.5% and a viability, T/C [3] of 99.2%. It also gave a viability, T/C [4] of 96.2%, a viability, T/C [5] of 67.6% and a viability, T/C [6] of 46.8%. The viability, T/C [7] was 117%, the viability, T/C [8] was 108% and the viability, T/C [9] was 107%. It also gave a viability, T/C [10] of 99.7%, a viability, T/C [11] of 66.3% and a viability, T/C [12] of 62.6%. It also gave a viability, T/C [13] of 103%, a viability, T/C [14] of 108% and a viability, T/C [15] of 98.1%. For the same molecule, the viability, T/C [16] was 93.7%, the viability, T/C [17] was 68.7% and the viability, T/C [18] was 49.9%. It also gave a viability, T/C [19] of 103%, a viability, T/C [20] of 97.2% and a viability, T/C [21] of 104%. For the same molecule, the viability, T/C [22] was 104%, the viability, T/C [23] was 58.5% and the viability, T/C [24] was 44.7%. The viability, T/C [25] was 105%, the viability, T/C [26] was 111% and the viability, T/C [27] was 102%. It also gave a viability, T/C [28] of 83%, a viability, T/C [29] of 82.8% and a viability, T/C [30] of 55.3%. The viability, T/C [31] was 108%, the viability, T/C [32] was 95.6% and the viability, T/C [33] was 108%. It also gave a viability, T/C [34] of 85.5%, a viability, T/C [35] of 67.8% and a viability, T/C [36] of 59%.

`COc1cc(C2c3cc4c(cc3C(OC3OC5COC(C)OC5C(O)C3O)C3COC(=O)C23)OCO4)cc(OC)c1O` (stereo unspecified) + COC1C(OC(N)=O)C(O)C(Oc2ccc3c(O)c(NC(=O)c4ccc(O)c(CC=C(C)C)c4)c(=O)oc3c2C)OC1(C)C gave an IC50 (second compound 0.0316 µM) of 0.905 µM, an IC50 (second compound 0.1 µM) of 0.911 µM and an IC50 (second compound 0.316 µM) of 0.847 µM. For the same molecule, the IC50 (second compound 1 µM) was 0.98 µM, the IC50 (second compound 3.16 µM) was 0.954 µM and the IC50 (second compound 10 µM) was 1.36 µM. For the same molecule, the viability, T/C [1] was 116%, the viability, T/C [2] was 103% and the viability, T/C [3] was 78.1%. For the same molecule, the viability, T/C [4] was 45.9%, the viability, T/C [5] was 31.3% and the viability, T/C [6] was 21.4%. For the same molecule, the viability, T/C [7] was 124%, the viability, T/C [8] was 108% and the viability, T/C [9] was 79.5%. It also gave a viability, T/C [10] of 50%, a viability, T/C [11] of 24.8% and a viability, T/C [12] of 29%. The viability, T/C [13] was 103%, the viability, T/C [14] was 111% and the viability, T/C [15] was 80.4%. It also gave a viability, T/C [16] of 46.5%, a viability, T/C [17] of 24.7% and a viability, T/C [18] of 23.4%. It also gave a viability, T/C [19] of 111%, a viability, T/C [20] of 93.8% and a viability, T/C [21] of 77.3%. For the same molecule, the viability, T/C [22] was 52.9%, the viability, T/C [23] was 25.3% and the viability, T/C [24] was 31.6%. For the same molecule, the viability, T/C [25] was 105%, the viability, T/C [26] was 103% and the viability, T/C [27] was 81.9%. For the same molecule, the viability, T/C [28] was 49.7%, the viability, T/C [29] was 30% and the viability, T/C [30] was 29.2%. It also gave a viability, T/C [31] of 119%, a viability, T/C [32] of 103% and a viability, T/C [33] of 97.3%. For the same molecule, the viability, T/C [34] was 54.1%, the viability, T/C [35] was 34.7% and the viability, T/C [36] was 27.4%.

— PubChem BioAssay AID1963851 (Molecular Pharmacology Branch, DTP, NCI, 2024)
